Data: US10822338B2, “Substituted aminoquinazoline compounds as A2A antagonist” (Merck Sharp & Dohme Corp., priority 2015, dated 2020)

target: human A2A receptor (Homo sapiens (Human), UniProt P29274); assay: A2A competition binding assay using Scintillation Proximity technology; details: 0.25 μg of membranes from HEK293 cells expressing the human A2a receptor per well; 0.5 nM tritiated radioligand; Cheng-Prusoff
Procedure: Binding affinities of compounds of the invention for the human A2A receptor were determined in a competition binding assay using Scintillation Proximity technology. Thus, 1^μg (^ denotes 1 μg of membrane/well), or preferably 0.25 μg of membranes from HEK293 cells expressing the human A2a receptor were incubated with a compound of the invention at concentrations ranging from 3000 nM to 0.15 nM in a reaction mixture containing also 0.5 nM of a tritiated form of 5-amino-7-[2-phenethyl]-2-(furan-2-yl)-7H-pyrazolo[4,3-e][1,2,4]triazolo[1,5-c]pyrimidine (the tritiated compound) and 25 μg of wheat germ agglutin-coated yttrium silicate SPA beads for one hour at room temperature with agitation. The beads were then allowed to settle to the bottom of the wells for 1 hr, after which the membrane-associated radioactivity was determined by scintillation counting in a TopCount microplate reader. Ki values were determined using the Cheng-Prusoff equation.
HEK293 cells expressing the human, rat, dog or monkey adenosine 2a receptor (Purchased from Perkin-Elmer # RBHA2AM400UA).
The Tritiated compound was prepared in-house by MRL Radiochemistry according to published methods.
Wheat germ agglutinin-coated yttrium silicate SPA beads (GE Healthcare #RPNQ0023). Dilute to 25 mg/mL in assay buffer.
Assay Buffer was prepared in house: Dulbecco's calcium and magnesium free phosphate buffered saline+10 mM MgCl2
Adenosine deaminase from calf intestine, 10 mg/2 mL (Roche #10 102 105 001).
A2A antagonist standard (9-chloro-1-(2-furanyl)-[1,2,4]triazolo[1,5-c]quinazolin-5-amine from Tocris Bioscience)
Make eight 1:3 serial dilutions in 100% DMSO from a 3 mM compound stock
Transfer 50 nL of compound into a 384-well OptiPlate (Perkin Elmer).
Typically, final concentrations of compound used in the assay ranged from 3000 nM to 0.152 nM.
Dilute a solution of the Tritiated compound to 1.25 nM in assay buffer. This a 2.5× solution. The final concentration in the assay is 0.5 nM. Calculate the concentration by counting two 5 μL aliquots.
Use *1 ug or preferrably 0.25 ug of membrane/well. Dilute membranes to 9.7 μg/ml in assay buffer. Treat with 20 ug/ml adenosine deaminase (ADA) for 15 minutes at room temperature to degrade endogenous adenosine.
Use 25 μg/well wheat germ agglutinin-coated yttrium silicate SPA beads.
Mix ADA-treated membranes and SPA beads together for 30 min prior to assay.
To the Perkin-Elmer Optiplate-384 containing the compound titration add 20 μL of 2.5× solution of the Tritiated compound and 30 μL of the membrane-bead mixture. Incubate for one hour at room temperature with agitation.
Include total binding (assay buffer+1% DMSO) and non-specific binding (CGS15943, 1 μM) wells.
Allow the beads to settle for one hour.
A curve fitting program (i.e., Prism, Activity Base, Chemcart) is used to determine the EC50. The Ki value is calculated using the Cheng-Prusoff equation. Ki=EC50/(1+(radioligand concentration/Kd)) Counting and Calculations
Counting and calculations were performed as described within the “A2A Activity Binding of Compounds of the Invention” section. Using the foregoing methods, the following results were obtained using compounds of the invention described herein. Each example compound tested is reported in the following format: Example number: A2A Ki (nM) selectivity.

Sequence of human A2A receptor (P29274 whole entry): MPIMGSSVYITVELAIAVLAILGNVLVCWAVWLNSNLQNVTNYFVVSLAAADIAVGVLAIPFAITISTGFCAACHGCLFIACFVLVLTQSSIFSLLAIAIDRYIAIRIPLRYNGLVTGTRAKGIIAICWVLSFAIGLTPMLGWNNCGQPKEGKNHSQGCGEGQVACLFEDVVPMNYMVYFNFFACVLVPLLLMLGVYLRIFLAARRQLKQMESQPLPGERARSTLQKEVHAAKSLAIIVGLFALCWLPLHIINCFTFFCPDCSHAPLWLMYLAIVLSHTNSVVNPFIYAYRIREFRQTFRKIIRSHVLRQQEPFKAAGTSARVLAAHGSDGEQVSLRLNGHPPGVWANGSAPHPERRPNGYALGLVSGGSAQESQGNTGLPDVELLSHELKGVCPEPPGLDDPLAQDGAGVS

Point of comparison: `COc1cccc2c1nc(N)n1nc(C3CCCC(N)C3)nc21` (single isomer, unassigned) [Example 30A, 2-(3-aminocyclohexyl)-7-methoxy-[1,2,4]triazolo[1,5-c]quinazolin-5-amine], Ki 91 nM. Against it:
- COc1cccc2c1nc(N)n1nc(C3CCCC(CCC(F)(F)F)C3)nc21 (single isomer, unassigned) [Example 29A, 7-methoxy-2-(3-(3,3,3-trifluoropropyl)cyclohexyl)-[1,2,4]triazolo[1,5-c]quinazolin-5-amine] — 5.7-fold lower, 16 nM
- COc1cccc2c1nc(N)n1nc(C3CCCC(CCC(F)(F)F)C3)nc21 (single isomer, unassigned) [Example 29B, 7-methoxy-2-(3-(3,3,3-trifluoropropyl)cyclohexyl)-[1,2,4]triazolo[1,5-c]quinazolin-5-amine] — 54-fold lower, 1.7 nM
- COc1cccc2c1nc(N)n1nc(C3CCCC(CCC(F)(F)F)C3)nc21 (single isomer, unassigned) [Example 29C, 7-methoxy-2-(3-(3,3,3-trifluoropropyl)cyclohexyl)-[1,2,4]triazolo[1,5-c]quinazolin-5-amine] — 230-fold lower, 0.4 nM
- COc1cccc2c1nc(N)n1nc(C3CCCC(CCC(F)(F)F)C3)nc21 (single isomer, unassigned) [Example 29D, 7-methoxy-2-(3-(3,3,3-trifluoropropyl)cyclohexyl)-[1,2,4]triazolo[1,5-c]quinazolin-5-amine] — 5.4-fold lower, 17 nM
- COc1cccc2c1nc(N)n1nc(C3CCCC(N)C3)nc21 (single isomer, unassigned) [Example 30B, 2-(3-aminocyclohexyl)-7-methoxy-[1,2,4]triazolo[1,5-c]quinazolin-5-amine] — 2.1-fold lower, 44 nM
- COc1cccc2c1nc(N)n1nc(C3CCCC(N)C3)nc21 (single isomer, unassigned) [Example 30C, 2-(3-aminocyclohexyl)-7-methoxy-[1,2,4]triazolo[1,5-c]quinazolin-5-amine] — within 1.5-fold, 115 nM
- COc1cccc2c1nc(N)n1nc(C3CCCC(N)C3)nc21 (single isomer, unassigned) [Example 30D, 2-(3-aminocyclohexyl)-7-methoxy-[1,2,4]triazolo[1,5-c]quinazolin-5-amine] — 7.3-fold higher, 660 nM
- COc1cccc2c1nc(N)n1nc(C3CCCCN(CC(F)(F)F)C3)nc21 (single isomer, unassigned) [Example 32A, 7-methoxy-2-(1-(2,22-trifluoroethyl)azepan-3-yl)-[1,2,4]triazolo[1,5-c]quinazolin-5-amine] — 130-fold lower, 0.7 nM
- COc1cccc2c1nc(N)n1nc(C3CCCCN(CC(F)(F)F)C3)nc21 (single isomer, unassigned) [Example 32B, 7-methoxy-2-(1-(2,22-trifluoroethyl)azepan-3-yl)-[1,2,4]triazolo[1,5-c]quinazolin-5-amine] — 15-fold lower, 5.9 nM
- COc1cccc2c1nc(N)n1nc(C3CNCC(F)(F)C3)nc21 (single isomer, unassigned) [Example 33A, 2-(5,5-difluoropiperidin-3-1-yl)-7-methoxy-[1,2,4]triazolo[1,5-c]quinazolin-5-amine] — 17-fold lower, 5.3 nM
- COc1cccc2c1nc(N)n1nc(C3CNCC(F)(F)C3)nc21 (single isomer, unassigned) [Example 33B, 2-(5,5-difluoropiperidin-3-1-yl)-7-methoxy-[1,2,4]triazolo[1,5-c]quinazolin-5-amine] — 38-fold lower, 2.4 nM
- COc1cccc2c1nc(N)n1nc(C3CN(CC(F)F)CC(F)(F)C3)nc21 (single isomer, unassigned) [Example 34A, 2-(1-(2,2-difluoroethyl)-5,5-difluoropiperidin-3-yl)-7-methoxy-[1,2,4]triazolo[1,5-c]quinazolin-5-amine] — 83-fold lower, 1.1 nM
- COc1cccc2c1nc(N)n1nc(C3CN(CC(F)F)CC(F)(F)C3)nc21 (single isomer, unassigned) [Example 34B, 2-(1-(2,2-difluoroethyl)-5,5-difluoropiperidin-3-yl)-7-methoxy-[1,2,4]triazolo[1,5-c]quinazolin-5-amine] — 19-fold lower, 4.7 nM
- COc1cccc2c1nc(N)n1nc(C3CC4CCC3N(CC(F)(F)F)C4)nc21 (single isomer, unassigned) [Example 35A, 7-methoxy-2-(2-(2,2,2-trifluoroethyl)-2-azabicyclo[2.2.2]octan-6-yl)-[1,2,4]triazolo[1,5-c]quinazolin-5-amine] — 4.3-fold lower, 21 nM
- COc1cccc2c1nc(N)n1nc(C3CC4CCC3N(CC(F)(F)F)C4)nc21 (single isomer, unassigned) [Example 35B, 7-methoxy-2-(2-(2,2,2-trifluoroethyl)-2-azabicyclo[2.2.2]octan-6-yl)-[1,2,4]triazolo[1,5-c]quinazolin-5-amine] — 1.7-fold lower, 54 nM
- COc1cccc2c1nc(N)n1nc(C3CC4CCC3N(CC(F)(F)F)C4)nc21 (single isomer, unassigned) [Example 35C, 7-methoxy-2-(2-(2,2,2-trifluoroethyl)-2-azabicyclo[2.2.2]octan-6-yl)-[1,2,4]triazolo[1,5-c]quinazolin-5-amine] — 300-fold lower, 0.3 nM
- COc1cccc2c1nc(N)n1nc(C3CC4CCC3N(CC(F)(F)F)C4)nc21 (single isomer, unassigned) [Example 35D, 7-methoxy-2-(2-(2,2,2-trifluoroethyl)-2-azabicyclo[2.2.2]octan-6-yl)-[1,2,4]triazolo[1,5-c]quinazolin-5-amine] — 9.2-fold lower, 9.9 nM
- COc1cccc2c1nc(N)n1nc(C3CC(F)(F)CCO3)nc21 (single isomer, unassigned) [Example 55A, 2-(4,4-difluorotetrahydro-2H-pyran-2-yl)-7-methoxy-[1,2,4]triazolo[1,5-c]quinazolin-5-amine] — 48-fold lower, 1.9 nM
- COc1cccc2c1nc(N)n1nc(C3CC(F)(F)CCO3)nc21 (single isomer, unassigned) [Example 55B, 2-(4,4-difluorotetrahydro-2H-pyran-2-yl)-7-methoxy-[1,2,4]triazolo[1,5-c]quinazolin-5-amine] — 46-fold lower, 2 nM
- COc1cccc2c1nc(N)n1nc(C3CCC(F)(F)CN3)nc21 (single isomer, unassigned) [Example 58A, 2-(5,5-difluoropiperidin-2-yl)-7-methoxy-[1,2,4]triazolo[1,5-c]quinazolin-5-amine] — 38-fold lower, 2.4 nM
- COc1cccc2c1nc(N)n1nc(C3CCC(F)(F)CN3)nc21 (single isomer, unassigned) [Example 58B, 2-(5,5-difluoropiperidin-2-yl)-7-methoxy-[1,2,4]triazolo[1,5-c]quinazolin-5-amine] — 300-fold lower, 0.3 nM

same assay, conditions: values marked ^: 1 μg of membrane/well (HEK293 cells expressing the human A2a receptor); 0.5 nM tritiated radioligand; Cheng-Prusoff

Point of comparison: `Nc1nc2c3c(ccc2c2nc(C4CCCN(CCC(F)(F)F)C4)nn12)OC(F)(F)O3` (single isomer, unassigned) [Example 56B], Ki 55 nM. Against it:
- Nc1nc2c(Cl)cccc2c2nc(C3CCCN(CCC(F)(F)F)C3)nn12 (racemic) [Example 27, (±)-7-chloro-2-(1-(3,3,3-trifluoropropyl)piperidin-3-yl)-[1,2,4]triazolo[1,5-c]quinazolin-5-amine] — 5.7-fold lower, 9.7 nM
- COc1cccc2c1nc(N)n1nc(C3CCN(c4cccc(F)c4)C3)nc21 (racemic) [Example 51, (±)-2-(1-(3-fluorophenyl)pyrrolidin-3-yl)-7-methoxy[1,2,4]triazolo[1,5-c]quinazolin-5-amine] — 39-fold lower, 1.4 nM
- COc1cccc2c1nc(N)n1nc(C3CCCN(c4ccccc4)C3)nc21 (single isomer, unassigned) [Example 50A, 7-methoxy-2-(1-phenylpiperidin-3-yl)-[1,2,4]triazolo[1,5-c]quinazolin-5-amine] — 61-fold lower, 0.9 nM
- COc1cccc2c1nc(N)n1nc(C3CCCN(c4ccccc4)C3)nc21 (single isomer, unassigned) [Example 50B, 7-methoxy-2-(1-phenylpiperidin-3-yl)-[1,2,4]triazolo[1,5-c]quinazolin-5-amine] — 1.6-fold lower, 34 nM
- Nc1nc2c3c(ccc2c2nc(C4CCCN(CCC(F)(F)F)C4)nn12)OC(F)(F)O3 (single isomer, unassigned) [Example 56A] — 69-fold lower, 0.8 nM
